Experimental data as given in article PMC5734728, “The JAK2/STAT3 inhibitor pacritinib effectively inhibits patient-derived GBM brain tumor initiating cells in vitro and when used in combination with temozolomide increases survival in an orthotopic xenograft model” (PLoS ONE, 2017).

Columns and labels:
[1] = human liver microsomal stability assay; format: in vitro ADME; details: human liver microsomes, 30-minute incubation
Experimental: (§1) Working stocks were initially diluted to a concentration of 40 μM in 0.1 M potassium phosphate buffer before addition to the reaction vials. Pooled mouse (CD-1, male) or human (50 donors) liver microsomes were utilized at a final concentration of 0.5 mg/mL. Duplicate wells were used for each time point (0 and 30 minutes). Reactions were carried out at 37°C in a shaker, and the final concentration of DMSO was kept constant at 0.01%. The final volume for each reaction was 100 μL, which included the addition of an NADPH-Regeneration solution (NRS) mix. The NRS mix was comprised of glucose 6-phosphate dehydrogenase (0.4 U/mL), NADP+ (1.3 mM), MgCl2 (3.3 mM), and glucose 6-phosphate (3.3 mM) in assay mixtures. Upon completion of the 30-minute time point, reactions were terminated by the addition of 1.5-volumes (150 μL) of ice-cold acetonitrile with 0.5% formic acid and internal standard. Samples were then centrifuged at 4,000 rpm for 10 minutes to remove debris and precipitated protein. Approximately 150 μL of supernatant was subsequently transferred to a new 96-well microplate for LC-MS analysis. Narrow-window mass extraction LC-MS analysis was performed for all samples using a Waters Xevo quadrupole time-of-flight (QToF) mass spectrometer and an ACQUITY UPLC system, to determine relative peak areas of parent compound.

BT189 = assay: alamarBlue BTIC viability assay, BT189; format: cell-based; details: Homo sapiens; BTIC line BT189, alamarBlue
in vitro = in vitro ADME, mouse; details: mouse liver microsomes, 30-minute incubation; for % Remaining: 1 μM
Experimental: as §1

[2] = test system: p-p44/42 MAPK (T202/Y204); assay: western blotting of p-p44/42 MAPK in BTICs; format: cell-based, human
Experimental: (§2) BTIC spheres were enzymatically dissociated as described above and plated at 10^6 cells/2 mL of media. Cells were treated with vehicle (DMSO), pacritinib, TMZ, or a combination of pacritinib and TMZ and pelleted at select time points (3, 24, and 48 hours). For protein extraction, BTICs were lysed in modified radio-immunoprecipitation assay buffer supplemented with Complete Mini protease (Roche) and Halt phosphatase (Thermo Scientific) inhibitor cocktails. […] Blots were stained with primary antibodies followed by horseradish peroxidase-conjugated secondary antibodies. […] Cell Signaling Technology), STAT3 (1:1000; Cell Signaling Technology), p-Akt S473 (1:1000; Cell Signaling Technology), Akt (1:1000; Cell Signaling Technology), p-p44/42 MAPK (T202/Y204) (1:1000; Cell Signaling Technology), p44/42 MAPK (1:4000; Cell Signaling Technology), poly (ADP-ribose) polymerase (1:1000; Cell Signaling Technology), β-tubulin (1:1000; Cell Signaling Technology), and Actin (1:1000; Santa Cruz Biotechnology). Secondary antibodies included donkey anti-mouse (1:5000; Cell Signaling Technology), donkey anti-goat (1:5000; Millipore), and goat anti-rabbit (1:5000; Cell Signaling Technology). […] Bands were visualized with the SuperSignal West Pico chemiluminescent solution (Thermo Scientific) and an Amersham™ Imager 600 (General Electric).

BT67 = assay: alamarBlue BTIC viability assay, BT67; format: cell-based; details: Homo sapiens; BTIC line BT67, alamarBlue
BT69 = assay: alamarBlue BTIC viability assay, BT69; format: cell-based; details: Homo sapiens; BTIC line BT69, alamarBlue
BT147 = assay: neurosphere assay, BT147; format: cell-based, human; details: 3 μM
BT68 = assay: alamarBlue BTIC viability assay, BT68; format: cell-based; details: Homo sapiens; BTIC line BT68, alamarBlue
BT143 = assay: alamarBlue BTIC viability assay, BT143; format: cell-based; details: Homo sapiens; BTIC line BT143, alamarBlue
[3] = test system: BT143 orthotopic xenograft; assay: Kaplan-Meier survival, orthotopic BT143 xenograft; format: in vivo; details: BT143 xenografted mice; p < 0.4622 log-rank
BT12 = assay: alamarBlue BTIC viability assay, BT12; details: Homo sapiens, BT-12, read-out: IC50 (viability)
Experimental: Accumax (eBioscience) was used to enzymatically dissociate BTIC spheres to single cells. Cells were seeded at 1000 cells per well in 96-well plates and treated with vehicle (DMSO) or drug, 24 hours after plating. BTIC viability was assessed after 7–14 days, once spheres were formed in control wells, by performing the alamarBlue™ (Invitrogen) assay per the manufacturer’s instructions. In brief, the alamar dye was added to each well and plates were read 6 hours later. Fluorescence intensity (excitation 540 nm; emission 590 nm) was measured on a SpectraMax M Series Multi-Mode Microplate reader. […] All experiments were performed in triplicate with a minimum of 3 wells per condition.
BTICs were treated with suboptimal doses of 1 μM pacritinib (CTI Biopharma), 10 μg/mL TMZ (Sigma), or a combination of pacritinib and TMZ. […] Percent inhibition was determined by normalizing each well to the control well (0.1% DMSO).

p-Akt S473 = assay: western blotting of p-Akt in BTICs; format: cell-based, human
Experimental: as §2

BT124 = assay: alamarBlue BTIC viability assay, BT124; format: cell-based; details: Homo sapiens; BTIC line BT124, alamarBlue
cleaved PARP = assay: western blotting of cleaved PARP in BTICs; format: cell-based, human; details: BT69, 24 hours
Experimental: as §2

[4] = BT147 and BT53, low micromolar concentrations, 3 hours

With `C1=C/COCc2cc(ccc2OCCN2CCCC2)Nc2nccc(n2)-c2cccc(c2)COC/1` [pacritinib] the stability rating [1] was “Stable”, the remaining at 0.5 h, 1 μM ([1]; 1 μM) was 76.2 ± 7.9% and the IC50 (BT189) was 1.01 µM. For the same compound, the stability rating (in vitro) was “Unstable”, the “% Remaining” value (in vitro) was less than 1% and the “% Remaining” value (in vitro; listed as Pacritinib (run 1)) was 0.3%. For the same compound, the “% Remaining” value (in vitro; listed as Pacritinib (run 2)) was 0.6%, the “p-p44/42 MAPK” value ([2]; BT53, 5 and 10 μM) was “decreased p-p44/42 MAPK” and the “phosphorylation of p44/42 MAPK (T202/Y204)” value [2, 4] was “unchanged levels of phosphorylation”. The IC50 (BT67) was 1.08 µM, the IC50 (BT69) was 1.26 µM and the sphere formation (BT147) was “completely abolished sphere formation”. For the same compound, the IC50 (BT68) was 1.22 µM, the IC50 (BT143) was 1.36 µM and the “efficacy of treatment alone (Kaplan-Meier survival)” value [3] was “no efficacy”. The IC50 (BT12) was 1.66 µM, the “p-Akt S473” value (p-Akt S473; BT147 and BT53, 5 and 10 μM) was “decreased” and the “phosphorylation of AKT S473” value (p-Akt S473; [4]) was “unchanged levels of phosphorylation”. For the same compound, the IC50 (BT124) was 1.33 µM and the “cell death (cleaved PARP levels)” value (cleaved PARP) was “increase in cleaved PARP levels”.
